In general, pIC50 refers to the negative decadic logarithm of the IC50, by convention in mol/L.

SMILES strings stand for the structures. pIC50: −log10 of the molar value. Where two headings read alike, the source gives them in different places.

The record followed here is patent US6420377B1, “Covalent conjugates of topoisomerase I and topoisomerase II inhibitors” (priority 1997, dated 2002).

The test system of data set [1] is KB. Put plainly: Cytotoxicity measured as reduced plating efficiency, KB cells. It is filed as cell-based. The note with it: Homo sapiens, 3 h, read-out: Cytotoxicity Measured as Reduced Plating Efficiency IC50. As to the method:
(§1) LC50 concentrations were determined by treating cells for three hours with different concentrations of compounds then replating cells to measure colony formation and plating efficiency as the percent of total cells forming colonies. Compounds were evaluated in three independent experiments. The plating efficiences of untreated cells varied between experiments with values ranging from 14-31% for KB, 31-56% for KB-7d, 16-38% for KB-VIN20c and 21-36% for KB-CPT100. A concentration of compound that reduced plating efficiency by fifty percent relative to control, the LC50, was determined graphically as stated in the preceding section.

Data set [2] relates to KB cells. Put plainly: Gel lysis assay for genomic DNA breaks. It is filed as cell-based. Here is the method:
One million KB cells in 25cm^2 flasks were treated for three hours with test compound, the medium was discarded then cells were scraped into ice-cold PBS and harvested by centrifugation. Washed cell pellets were resuspended in eighty microliters of a 37° C. gel solution [1% (w/v) low-melting point agarose in PBS], and were cast in a mold and refrigerated to form 6×7×2 mm agarose plugs. Plugs of cells were incubated in lysis-digestion buffer (0.4M EDTA, 0.01 Tris (HCl, pH 8.0), 1% (w/v) N-lauryl-sarcosine and 100 μg/mL proteinase K) at 37° overnight or 50° for one hour. The treated plugs were equilibrated in TBE buffer and placed against a gel comb in a horizontal gel casting tray (BRL Inc., H4 system format). A 55° gel solution containing 0.8% (w/v) agarose in TBE was poured and allowed to gel. Electrophoresis was at 3.5 v/cm (measured between electrodes) for 16 hours at 4° without buffer re-circulation. The gel was stained with 1 μg/mL ethidium bromide in water, treated overnight at 25° C. with RN'ase (1 μg/mL), and then photographed under UV illumination. For the reversibility studies, treated cells were washed with PBS and incubated with fresh media for an additional hour before harvesting for plug preparation and gel analysis.

The test system of data set [3] is KB-CPT100. Description: Cell growth inhibition, camptothecin-resistant KB-CPT100 cells. It is filed as cell-based. Here is the method:
(§2) The KB oral carcinoma cell line was provided by M. Fisher (Pharmacology, UNC- Chapel Hill). The isolation and properties of the etoposide-resistant sub-clone, KB-7d, and the camptothecin-resistant line, KB-CPT100, were reported in P. Ferguson et al., Cancer Res. 48:5956 (1988) and D. Beidler et al., Cancer Res. 56:345 (1996), and are discussed briefly hereinafter. The vincristine-resistant sub-clone, KB-VIN20c was isolated by selection in 20 nM vincristine and over-expresses the P-glycoprotein multidrug-resistant drug-efflux protein (unpublished results).
(§3) All cell types were propagated in RPMI-1640 medium supplemented with 5% (v/v) fetal calf serum and 100 μg/mL kanamycin at 37° in a humidified atmosphere of 5% CO2 and 95% air. Over the course of the experiments, doubling times of cells were 24±4 hours.
(§4) Fifty thousand cells were plated in 25 cm^2 flasks (Falcon, N.J., USA) and incubated overnight. The medium was supplemented with test compounds at various concentrations and cultures were incubated for 48-51 hours (for about two cell doublings) before cells were trypsinized and then counted using a hemacytometer. The number of treated cells which excluded 0.5% (v/v) trypan blue were expressed as a percentage of the growth measured in control cultures. Compounds were evaluated in at least two independent experiments and the combined results were analyzed as scatter plots with dose-responses being computer fitted by linear regression at the 95% confidence level using Graphpad Software., San Diego, Calif. The IC50 concentrations which inhibited cell growth by fifty percent relative to control were interpolated from graphed results.

Data set [4] relates to KB-7d. Description: Cell growth inhibition, etoposide-resistant KB-7d cells. The class given is cell-based. The note with it: KB7D, read-out: Cell Growth Inhibition IC50. As to the method: as §2, §3, §4
For data set [5], the system named is KB-7d. Description: Cytotoxicity measured as reduced plating efficiency, KB-7d cells. The class given is cell-based. Here is the method: as §1
Data set [6] deals with KB-CPT100. Put plainly: Cytotoxicity measured as reduced plating efficiency, KB-CPT100 cells. The class given is cell-based. The note with it: KBCPT100, 3 h, read-out: Cytotoxicity Measured as Reduced Plating Efficiency IC50. Here is the method: as §1
Data set [7] deals with calf thymus DNA topoisomerase II. Put plainly: In vitro topoisomerase-DNA cleavage assay, topoisomerase II. The class given is biochemical. From the text:
Calf thymus DNA topoisomerases were purchased from TopoGen Inc., Columbus, Ohio. Tritium-labeled thymidine (60-90 ci/mmol) for labeling cellular DNA to measure protein-DNA complexes and αP^32-labeled deoxycytidine triphosphate (>3000 ci/mmol) were obtained from ICN Biochemicals Inc., Irvine, Calif. The latter radiochemical was used with a T4-DNA polymerase polymerase-labeling system from BRL Inc., Gaithersburg, Md., to prepare P^32-plasmid DNA for in vitro cleavage assays. Tissue culture reagents were purchased from Sigma Chemical Co., St. Louis, Mo., and Gibco-BRL Inc. All other chemicals were reagent grade.
The detailed method used to measure stimulation of cleavable complexes in vitro is described in K. Bastow et al., Planta Med. 59:195 (1993).. Briefly, incubated cleavage reactions containing one nanogram of P^32 end-labeled linearized PBR322 DNA, one unit of enzyme and test compound were divided equally for analysis. One portion was prepared for gel electrophoresis with subsequent autoradiography and protein-DNA complexes in the remaining sample were analyzed using the potassium-SDS precipitation method and scintillation spectrometry.

In data set [8] the test system is KB-VIN20c. Description: Cytotoxicity measured as reduced plating efficiency, KB-VIN20c cells. The class given is cell-based. The note with it: 3 h, read-out: Cytotoxicity Measured as Reduced Plating Efficiency IC50. As to the method: as §1

Regarding `CC[C@@]1(O)C(=O)OCc2c1cc1n(c2=O)Cc2c-1nc1ccccc1c2/C=N/c1ccccc1N[C@@H]1c2cc3c(cc2[C@@H](c2cc(OC)c(O)c(OC)c2)[C@H]2C(=O)OC[C@@H]21)OCO3` [Compound S-2], the pIC50 was 5.40 in data set [1]; 7.07 in data set [3] (KBCPT100, read-out: Cell Growth Inhibition IC50); 7.82 in data set [4]; under 4.82 in data set [5] (KB7D, 3 h, read-out: Cytotoxicity Measured as Reduced Plating Efficiency IC50); 5.70 in data set [6]; 5.34 in data set [8]. Also, the “genomic DNA fragmentation” value is given as “marginal DNA fragmentation” in data set [2] and “high molecular mass genomic fragments were detected” in data set [2] (twenty-fold higher concentration (3 at sixteen micromolar), three hours). Besides, the “reversal of genomic DNA fragmentation upon drug removal” value in data set [2] (twenty-fold higher concentration, additional hour in fresh media) was “only partially restored”. Besides, the “cross-resistance of KB-CPT100 cells, growth inhibition” value in data set [3] (relative to KB) is given as “only six-fold cross-resistant”. Besides, the “cross-resistance of KB-7d cells to cytotoxic action” value in data set [5] is reported as “appeared cross-resistant”. In addition, the “stimulation of in vitro topoisomerase II cleavable-complexes, dose behaviour” value in data set [7] was “dose-inhibitory”. In addition, the “stimulation of topoisomerase II-induced DNA cleavage over enzyme control” value in data set [7] (fifty micromolar) was “only marginal stimulation”; in data set [7] (one micromolar), “only marginal stimulation”; in data set [7] (ten micromolar), about 4 fold. In addition, the “cleavable complex formation with topoisomerase II” value in data set [7] (ten micromolar, FIG. 1A) was “induced cleavable complexes”. Further, the “topoisomerase II cleavable complex activity relative to unconjugated components” value in data set [7] (ten micromolar, S-1 vs 3, 4a, S-2 vs 3, 4b) is on record as “reduced about two-fold”.
